From PubChem BioAssay (NCI)
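GI50 is the concentration that inhibits growth by half. TGI: total growth inhibition.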

Assays:
Test in all cases: growth of human tumour cells (NCI), 384-well format
UO-31 renal = system: UO-31 renal
SNB-19 CNS = system: SNB-19 CNS
T-47D breast = system: T-47D breast
U251 glioblastoma = system: U251 glioblastoma
SW-620 colon = system: SW-620 colon
RPMI-8226 leukemia = system: RPMI-8226 leukemia
A498 renal = system: A498 renal
KM12 colon = system: KM12 colon
HCC-2998 colon = system: HCC-2998 colon
NCI-H460 NSCLC = system: NCI-H460 NSCLC
HT29 colon = system: HT29 colon
MCF7 breast = system: MCF7 breast
UACC-257 melanoma = system: UACC-257 melanoma
HCT-15 colon = system: HCT-15 colon
SF-268 CNS = system: SF-268 CNS
NCI-H23 lung = system: NCI-H23 lung
IGROV1 ovarian = system: IGROV1 ovarian
HCT-116 colon = system: HCT-116 colon
SK-OV-3 ovarian = system: SK-OV-3 ovarian
UACC-62 melanoma = system: UACC-62 melanoma
MDA-MB-435 melanoma = system: MDA-MB-435 melanoma
NCI-H226 lung = system: NCI-H226 lung
SF-295 CNS = system: SF-295 CNS
OVCAR-8 ovarian = system: OVCAR-8 ovarian
OVCAR-3 ovarian = system: OVCAR-3 ovarian
LOX IMVI melanoma = system: LOX IMVI melanoma
ACHN renal = system: ACHN renal
TK-10 renal = system: TK-10 renal
SK-MEL-28 melanoma = system: SK-MEL-28 melanoma
MDA-MB-468 breast = system: MDA-MB-468 breast
OVCAR-4 ovarian = system: OVCAR-4 ovarian
CCRF-CEM leukemia = system: CCRF-CEM leukemia
HOP-62 NSCLC = system: HOP-62 NSCLC
MALME-3M melanoma = system: MALME-3M melanoma
K-562 leukemia = system: K-562 leukemia
OVCAR-5 ovarian = system: OVCAR-5 ovarian
MOLT-4 leukemia = system: MOLT-4 leukemia
HL-60(TB) leukemia = system: HL-60(TB) leukemia
A549 NSCLC = system: A549 NSCLC
CAKI-1 renal = system: CAKI-1 renal
NCI-H522 lung = system: NCI-H522 lung
786-0 renal = system: 786-0 renal
BT-549 breast = system: BT-549 breast
NCI-H322M lung = system: NCI-H322M lung
SK-MEL-5 melanoma = system: SK-MEL-5 melanoma
RXF 393 renal = system: RXF 393 renal
COLO 205 colon = system: COLO 205 colon
DU-145 prostate = system: DU-145 prostate
NCI/ADR-RES ovarian = system: NCI/ADR-RES ovarian
PC-3 prostate = system: PC-3 prostate
HOP-92 NSCLC = system: HOP-92 NSCLC
M14 melanoma = system: M14 melanoma
SN12C renal = system: SN12C renal
SF-539 CNS = system: SF-539 CNS
SR leukemia = system: SR leukemia
SK-MEL-2 melanoma = system: SK-MEL-2 melanoma
MDA-MB-231 breast = system: MDA-MB-231 breast

Structure (SMILES): Cc1c(COc2cc(OCc3cccc(C#N)c3)c(CN3C[C@H](O)C[C@@H]3C(=O)O)cc2Cl)cccc1-c1ccc2c(c1)OCCO2
- GI50 (UO-31 renal): 1.93 µM
- TGI (UO-31 renal): 3.79 µM
- GI50 (SNB-19 CNS): 4.11 µM
- TGI (SNB-19 CNS): 13.5 µM
- GI50 (T-47D breast): 2.97 µM
- TGI (T-47D breast): 12.9 µM
- GI50 (U251 glioblastoma): 3.38 µM
- TGI (U251 glioblastoma): 10.6 µM
- GI50 (SW-620 colon): 5.44 µM
- TGI (SW-620 colon): 17 µM
- GI50 (RPMI-8226 leukemia): 1.67 µM
- TGI (RPMI-8226 leukemia): 3.04 µM
- GI50 (A498 renal): 3.27 µM
- TGI (A498 renal): 11.7 µM
- GI50 (KM12 colon): 3.38 µM
- TGI (KM12 colon): 10.9 µM
- GI50 (HCC-2998 colon): 1.47 µM
- TGI (HCC-2998 colon): 3.59 µM
- GI50 (NCI-H460 NSCLC): 3.45 µM
- TGI (NCI-H460 NSCLC): 12.4 µM
- GI50 (HT29 colon): 2.42 µM
- TGI (HT29 colon): 5.77 µM
- GI50 (MCF7 breast): 2.34 µM
- TGI (MCF7 breast): 6.63 µM
- GI50 (UACC-257 melanoma): 2.63 µM
- TGI (UACC-257 melanoma): 8.02 µM
- GI50 (HCT-15 colon): 4.4 µM
- TGI (HCT-15 colon): 14.8 µM
- GI50 (SF-268 CNS): 3.98 µM
- TGI (SF-268 CNS): 14.5 µM
- GI50 (NCI-H23 lung): 10.4 µM
- TGI (NCI-H23 lung): 22.2 µM
- GI50 (IGROV1 ovarian): 3.93 µM
- TGI (IGROV1 ovarian): 14.2 µM
- GI50 (HCT-116 colon): 2.81 µM
- TGI (HCT-116 colon): 7.43 µM
- GI50 (SK-OV-3 ovarian): 5.17 µM
- TGI (SK-OV-3 ovarian): 16.3 µM
- GI50 (UACC-62 melanoma): 2.3 µM
- TGI (UACC-62 melanoma): 5.05 µM
- GI50 (MDA-MB-435 melanoma): 4.35 µM
- TGI (MDA-MB-435 melanoma): 14.2 µM
- GI50 (NCI-H226 lung): 2.6 µM
- TGI (NCI-H226 lung): 7.19 µM
- GI50 (SF-295 CNS): 3.09 µM
- TGI (SF-295 CNS): 8.92 µM
- GI50 (OVCAR-8 ovarian): 4.21 µM
- TGI (OVCAR-8 ovarian): 15.5 µM
- GI50 (OVCAR-3 ovarian): 2.37 µM
- TGI (OVCAR-3 ovarian): 6.1 µM
- GI50 (LOX IMVI melanoma): 2.68 µM
- TGI (LOX IMVI melanoma): 6.63 µM
- GI50 (ACHN renal): 10.4 µM
- TGI (ACHN renal): 22.3 µM
- GI50 (TK-10 renal): 3.11 µM
- TGI (TK-10 renal): 9.29 µM
- GI50 (SK-MEL-28 melanoma): 2.71 µM
- TGI (SK-MEL-28 melanoma): 7.55 µM
- GI50 (MDA-MB-468 breast): 2.7 µM
- TGI (MDA-MB-468 breast): 6.92 µM
- GI50 (OVCAR-4 ovarian): 4.03 µM
- TGI (OVCAR-4 ovarian): 16 µM
- GI50 (CCRF-CEM leukemia): 1.81 µM
- TGI (CCRF-CEM leukemia): 3.26 µM
- GI50 (HOP-62 NSCLC): 3.97 µM
- TGI (HOP-62 NSCLC): 15.4 µM
- GI50 (MALME-3M melanoma): 5.72 µM
- TGI (MALME-3M melanoma): 17.5 µM
- GI50 (K-562 leukemia): 3.46 µM
- TGI (K-562 leukemia): 12.1 µM
- GI50 (OVCAR-5 ovarian): 15 µM
- TGI (OVCAR-5 ovarian): 28.2 µM
- GI50 (MOLT-4 leukemia): 1.77 µM
- TGI (MOLT-4 leukemia): 3.16 µM
- GI50 (HL-60(TB) leukemia): 2.1 µM
- TGI (HL-60(TB) leukemia): 3.54 µM
- GI50 (A549 NSCLC): 10.6 µM
- TGI (A549 NSCLC): 22.5 µM
- GI50 (CAKI-1 renal): 6.69 µM
- TGI (CAKI-1 renal): 18.8 µM
- GI50 (NCI-H522 lung): 2.73 µM
- TGI (NCI-H522 lung): 9.61 µM
- GI50 ([…]-0 renal): 3.82 µM
- TGI (786-0 renal): 13.7 µM
- GI50 (BT-549 breast): 3.4 µM
- TGI (BT-549 breast): 12 µM
- GI50 (NCI-H322M lung): 7.65 µM
- TGI (NCI-H322M lung): 20.2 µM
- GI50 (SK-MEL-5 melanoma): 1.72 µM
- TGI (SK-MEL-5 melanoma): 4.31 µM
- GI50 (RXF 393 renal): 1.41 µM
- TGI (RXF 393 renal): 3.5 µM
- GI50 (COLO 205 colon): 4.51 µM
- TGI (COLO 205 colon): 14.6 µM
- GI50 (DU-145 prostate): 7.96 µM
- TGI (DU-145 prostate): 20.5 µM
- GI50 (NCI/ADR-RES ovarian): 77.7 µM
- TGI (NCI/ADR-RES ovarian): > 100 µM
- GI50 (PC-3 prostate): 3.58 µM
- TGI (PC-3 prostate): 10.3 µM
- GI50 (HOP-92 NSCLC): 2.4 µM
- TGI (HOP-92 NSCLC): 6 µM
- GI50 (M14 melanoma): 3.64 µM
- TGI (M14 melanoma): 11.6 µM
- GI50 (SN12C renal): 5.41 µM
- TGI (SN12C renal): 16.4 µM
- GI50 (SF-539 CNS): 3.25 µM
- TGI (SF-539 CNS): 11.6 µM
- GI50 (SR leukemia): 1.69 µM
- TGI (SR leukemia): 3.06 µM
- GI50 (SK-MEL-2 melanoma): 1.93 µM
- TGI (SK-MEL-2 melanoma): 3.76 µM
- GI50 (MDA-MB-231 breast): 3.23 µM
- TGI (MDA-MB-231 breast): 9.47 µM
